The supplement of paper PMC10307832

Experiments:
Assay in all cases: relative viability (nuclei count vs DMSO), 5 days (fraction); higher = more cells survive
COR-L 105 = system: COR-L 105
Summary of the method: (§1)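 Nuclei were stained with Hoechst during a one-step fixation (final 0.05% Triton X-100, 1% formaldehyde, 1 ug/ml Hoechst) carried out 5 days after dosing, then counted on 4× images. The cells, lung cancer lines in 1536-well plates, had been dosed by pin tool the day after seeding with one drug alone or a fixed anchor-drug dose plus five library-drug doses (not always all listed) in √10 steps. Relative viability is the nuclei count in treated wells divided by that in vehicle wells, and each value is the median of duplicate plates.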

NCI-H1975 = system: NCI-H1975
Summary of the method: as §1

NCI-H358 = system: NCI-H358
Summary of the method: as §1

NCI-H838 = system: NCI-H838
Summary of the method: as §1

BEN = system: BEN
Summary of the method: as §1

NCI-H1666 = system: NCI-H1666
Summary of the method: as §1

HCC-44 = system: HCC-44
Summary of the method: as §1

NCI-H23 = system: NCI-H23
Summary of the method: as §1

EKVX = system: EKVX
Summary of the method: as §1

HCC-15 = system: HCC-15
Summary of the method: as §1

NCI-H1437 = system: NCI-H1437
Summary of the method: as §1

HARA = system: HARA
Summary of the method: as §1

LK-2 = system: LK-2
Summary of the method: as §1

COR-L23 = system: COR-L23
Summary of the method: as §1

NCI-H441 = system: NCI-H441
Summary of the method: as §1

NCI-H650 = system: NCI-H650
Summary of the method: as §1

SW 900 = system: SW 900
Summary of the method: as §1

A-427 = system: A-427
Summary of the method: as §1

HCC-827 = system: HCC-827
Summary of the method: as §1

201T = system: 201T
Summary of the method: as §1

SK-MES-1 = system: SK-MES-1
Summary of the method: as §1

NCI-H596 = system: NCI-H596
Summary of the method: as §1

NC(=O)Nc1cc(-c2cccc(F)c2)sc1C(=O)N[C@H]1CCCNC1 [AZD7762] + Cc1cc(Nc2cc(N3CCN(C)CC3)nc(Sc3ccc(NC(=O)C4CC4)cc3)n2)n[nH]1 [Tozasertib] (partner 0.1 µM)
relative viability (COR-L 105; first compound 0.01 µM): 0.348 | relative viability (COR-L 105; first compound 0.03162 µM): 0.311 | relative viability (COR-L 105; first compound 0.1 µM): 0.328 | relative viability (COR-L 105; first compound 0.3162 µM): 0.3 | relative viability (COR-L 105; first compound 1 µM): 0.258 | relative viability (NCI-H1975; first compound 0.01 µM): 0.762 | relative viability (NCI-H1975; first compound 0.03162 µM): 0.721 | relative viability (NCI-H1975; first compound 0.1 µM): 0.589 | relative viability (NCI-H1975; first compound 0.3162 µM): 0.469 | relative viability (NCI-H1975; first compound 1 µM): 0.367 | relative viability (NCI-H358; first compound 0.01 µM): 0.0979 | relative viability (NCI-H358; first compound 0.03162 µM): 0.088 | relative viability (NCI-H358; first compound 0.1 µM): 0.109 | relative viability (NCI-H358; first compound 0.3162 µM): 0.0755 | relative viability (NCI-H358; first compound 1 µM): 0.0734 | relative viability (NCI-H838; first compound 0.01 µM): 0.269 | relative viability (NCI-H838; first compound 0.03162 µM): 0.299 | relative viability (NCI-H838; first compound 0.1 µM): 0.244 | relative viability (NCI-H838; first compound 0.3162 µM): 0.187 | relative viability (NCI-H838; first compound 1 µM): 0.128 | relative viability (BEN; first compound 0.01 µM): 0.521 | relative viability (BEN; first compound 0.03162 µM): 0.465 | relative viability (BEN; first compound 0.1 µM): 0.539 | relative viability (BEN; first compound 0.3162 µM): 0.507 | relative viability (BEN; first compound 1 µM): 0.486 | relative viability (NCI-H1666; first compound 0.01 µM): 0.703 | relative viability (NCI-H1666; first compound 0.03162 µM): 0.748 | relative viability (NCI-H1666; first compound 0.1 µM): 0.68 | relative viability (NCI-H1666; first compound 0.3162 µM): 0.724 | relative viability (NCI-H1666; first compound 1 µM): 0.47 | relative viability (HCC-44; first compound 0.01 µM): 1.1 | relative viability (HCC-44; first compound 0.03162 µM): 0.87 | relative viability (HCC-44; first compound 0.1 µM): 0.714 | relative viability (HCC-44; first compound 0.3162 µM): 0.822 | relative viability (HCC-44; first compound 1 µM): 0.412 | relative viability (NCI-H23; first compound 0.01 µM): 0.41 | relative viability (NCI-H23; first compound 0.03162 µM): 0.711 | relative viability (NCI-H23; first compound 0.1 µM): 0.558 | relative viability (NCI-H23; first compound 0.3162 µM): 0.33 | relative viability (NCI-H23; first compound 1 µM): 0.209 | relative viability (EKVX; first compound 0.01 µM): 0.393 | relative viability (EKVX; first compound 0.03162 µM): 0.353 | relative viability (EKVX; first compound 0.1 µM): 0.414 | relative viability (EKVX; first compound 0.3162 µM): 0.394 | relative viability (EKVX; first compound 1 µM): 0.255 | relative viability (HCC-15; first compound 0.01 µM): 0.448 | relative viability (HCC-15; first compound 0.03162 µM): 0.381 | relative viability (HCC-15; first compound 0.1 µM): 0.511 | relative viability (HCC-15; first compound 0.3162 µM): 0.432 | relative viability (HCC-15; first compound 1 µM): 0.212 | relative viability (NCI-H1437; first compound 0.01 µM): 0.408 | relative viability (NCI-H1437; first compound 0.03162 µM): 0.41 | relative viability (NCI-H1437; first compound 0.1 µM): 0.439 | relative viability (NCI-H1437; first compound 0.3162 µM): 0.372 | relative viability (NCI-H1437; first compound 1 µM): 0.366 | relative viability (HARA; first compound 0.01 µM): 0.113 | relative viability (HARA; first compound 0.03162 µM): 0.107 | relative viability (HARA; first compound 0.1 µM): 0.12 | relative viability (HARA; first compound 0.3162 µM): 0.103 | relative viability (HARA; first compound 1 µM): 0.0534 | relative viability (LK-2; first compound 0.01 µM): 0.194 | relative viability (LK-2; first compound 0.03162 µM): 0.186 | relative viability (LK-2; first compound 0.1 µM): 0.195 | relative viability (LK-2; first compound 0.3162 µM): 0.156 | relative viability (LK-2; first compound 1 µM): 0.165 | relative viability (COR-L23; first compound 0.01 µM): 0.198 | relative viability (COR-L23; first compound 0.03162 µM): 0.229 | relative viability (COR-L23; first compound 0.1 µM): 0.193 | relative viability (COR-L23; first compound 0.3162 µM): 0.17 | relative viability (COR-L23; first compound 1 µM): 0.0829 | relative viability (NCI-H441; first compound 0.01 µM): 0.801 | relative viability (NCI-H441; first compound 0.03162 µM): 0.907 | relative viability (NCI-H441; first compound 0.1 µM): 0.908 | relative viability (NCI-H441; first compound 0.3162 µM): 0.925 | relative viability (NCI-H441; first compound 1 µM): 0.587 | relative viability (NCI-H650; first compound 0.01 µM): 0.71 | relative viability (NCI-H650; first compound 0.03162 µM): 0.643 | relative viability (NCI-H650; first compound 0.1 µM): 0.709 | relative viability (NCI-H650; first compound 0.3162 µM): 0.704 | relative viability (NCI-H650; first compound 1 µM): 0.526 | relative viability (SW 900; first compound 0.01 µM): 0.713 | relative viability (SW 900; first compound 0.03162 µM): 0.536 | relative viability (SW 900; first compound 0.1 µM): 0.743 | relative viability (SW 900; first compound 0.3162 µM): 0.663 | relative viability (SW 900; first compound 1 µM): 0.403 | relative viability (A-427; first compound 0.01 µM): 0.215 | relative viability (A-427; first compound 0.03162 µM): 0.218 | relative viability (A-427; first compound 0.1 µM): 0.207 | relative viability (A-427; first compound 0.3162 µM): 0.179 | relative viability (A-427; first compound 1 µM): 0.175 | relative viability (HCC-827; first compound 0.01 µM): 0.41 | relative viability (HCC-827; first compound 0.03162 µM): 0.449 | relative viability (HCC-827; first compound 0.1 µM): 0.409 | relative viability (HCC-827; first compound 0.3162 µM): 0.394 | relative viability (HCC-827; first compound 1 µM): 0.372 | relative viability (201T; first compound 0.01 µM): 0.957 | relative viability (201T; first compound 0.03162 µM): 0.935 | relative viability (201T; first compound 0.1 µM): 0.98 | relative viability (201T; first compound 0.3162 µM): 1.03 | relative viability (201T; first compound 1 µM): 0.801 | relative viability (SK-MES-1; first compound 0.01 µM): 0.936 | relative viability (SK-MES-1; first compound 0.03162 µM): 0.865 | relative viability (SK-MES-1; first compound 0.1 µM): 0.798 | relative viability (SK-MES-1; first compound 0.3162 µM): 0.262 | relative viability (SK-MES-1; first compound 1 µM): 0.129 | relative viability (NCI-H596; first compound 0.01 µM): 0.978 | relative viability (NCI-H596; first compound 0.03162 µM): 0.83 | relative viability (NCI-H596; first compound 0.1 µM): 0.847 | relative viability (NCI-H596; first compound 0.3162 µM): 0.946 | relative viability (NCI-H596; first compound 1 µM): 0.793
